Test system: soybean meristem blocks
Assay: Agrobacterium-mediated soybean transformation (SULE selective marker) with screening by external (dropwise) application of tribenuron methyl; positive plants verified by TaqMan
Assay type: cell-based, Glycine max
Description: Screening of soybean meristem block: After the recovery period, the meristem block was transferred to 60 ml of a proliferation medium without a selective agent (tribenuron methyl) (B5 salt 3.1 g/L, B5 vitamin, MES 1 g/L, sucrose 30 g/L, 6-BAP 1 mg/L, agar 8 g/L, cephalosporin 150 mg/L, glutamic acid 100 mg/L, aspartic acid 100 mg/L, pH 5.6), so that the soybean meristem block grew rapidly, and the screening and culturing was carried out for 5-9 days, preferably 7 days, under the conditions of a temperature of 24° C. and a photoperiod (light/dark) of 16:8. After the above soybean meristem block was proliferated for 5-9 days, tribenuron methyl herbicide (95% tribenuron methyl wettable powder) was externally applied in concentration of 1, 3, 5 and 7 μg to per ml of the proliferation medium, respectively, in which the diluted tribenuron methyl herbicide solution was added to the proliferation medium to cause selective growth of the transformed cells, and the screening and culturing was carried out at a temperature of 24° C. and a photoperiod (light/dark) of 16:8 for 2 weeks.
Regeneration of plant from resistant soybean tissue block: The resistant tissue blocks after the above screening treatment with four concentrations of tribenuron methyl were separately taken out from the proliferation medium containing tribenuron methyl, the dead tissues and cotyledons attached thereto were removed, the resistant tissue blocks were transferred to (obliquely inserted into) a B5 differentiation medium without selective agent (tribenuron methyl) (B5 salt 3.1 g/L, B5 vitamin, MES 1 g/L, sucrose 30 g/L, ZT 1 mg/L, agar 8 g/L, cephalosporin 150 mg/L, glutamic acid 50 mg/L, aspartic acid 50 mg/L, gibberellin 1 mg/L, auxin 1 mg/L, pH 5.6), and cultured for differentiation at a temperature of 24° C. and a photoperiod (light/dark) of 16:8 for 14-20 days, preferably 18 days. After the differentiation and growth of the above screened four resistant soybean tissue blocks for 14-20 days, […] of tribenuron methyl herbicide (95% tribenuron methyl wettable powder) was externally applied to per ml of the B5 differentiation medium, in which the diluted solution of tribenuron methyl herbicide was added dropwise to the B5 differentiation medium by a pipette, and the screening and culturing was continued at a temperature of 24° C. and a photoperiod (light/dark) of 16:8 until the resistant tissue blocks (transformed cells) regenerated into plants or the regenerated plants could survive.
In the present example, in the screening step of the above soybean meristem blocks and the plant regenerating step of the resistant soybean tissue blocks, the tribenuron methyl herbicide (95% tribenuron methyl wettable powder) was applied to per ml of the proliferation medium or the B5 differentiation medium, and the concentration examples of the diluted tribenuron methyl herbicide solution added dropwise to the proliferation medium or the B5 differentiation medium were shown in Table 1. The proliferated soybean meristem blocks were screened for tolerance to tribenuron methyl herbicide, and the specific information of the 12 treatments was shown in Table 2, and the screening results for each treatment were shown in Table 3, in which each treatment was repeated for 3 times.
The seedlings differentiated from the above 12 treatments were transferred to a B5 rooting medium (B5 salt 3.1 g/L, B5 vitamin, MES 1 g/L, sucrose 30 g/L, agar 8 g/L, cephalosporin 150 mg/L, indole-3-butyric acid (IBA) 1 mg/L, pH 5.6), cultured at 25° C. to a height of about 10 cm, and moved to a greenhouse to grow until fructification. The transgenic plants could be obtained by culturing at 26° C. for 16 hours and then at 20° C. for 8 hours per day in a greenhouse. […]

[1] = Treatment 1: 1 μg/ml proliferation medium, 3 μg/ml B5 differentiation medium
[2] = Treatment 1: 1 μg/ml proliferation medium, 3 μg/ml B5 differentiation medium, 50 initially germinated soybeans
[3] = Treatment 2: 1 μg/ml proliferation medium, 5 μg/ml B5 differentiation medium
[4] = Treatment 2: 1 μg/ml proliferation medium, 5 μg/ml B5 differentiation medium, 55 initially germinated soybeans
[5] = Treatment 3: 1 μg/ml proliferation medium, 7 μg/ml B5 differentiation medium
[6] = Treatment 3: 1 μg/ml proliferation medium, 7 μg/ml B5 differentiation medium, 75 initially germinated soybeans
[7] = Treatment 4: 3 μg/ml proliferation medium, 3 μg/ml B5 differentiation medium
[8] = Treatment 4: 3 μg/ml proliferation medium, 3 μg/ml B5 differentiation medium, 55 initially germinated soybeans
[9] = Treatment 5: 3 μg/ml proliferation medium, 5 μg/ml B5 differentiation medium
[10] = Treatment 5: 3 μg/ml proliferation medium, 5 μg/ml B5 differentiation medium, 60 initially germinated soybeans
[11] = Treatment 6: 3 μg/ml proliferation medium, 7 μg/ml B5 differentiation medium, 45 initially germinated soybeans
[12] = Treatment 7: 5 μg/ml proliferation medium, 3 μg/ml B5 differentiation medium
[13] = Treatment 7: 5 μg/ml proliferation medium, 3 μg/ml B5 differentiation medium, 50 initially germinated soybeans
[14] = Treatment 8: 5 μg/ml proliferation medium, 5 μg/ml B5 differentiation medium
[15] = Treatment 8: 5 μg/ml proliferation medium, 5 μg/ml B5 differentiation medium, 70 initially germinated soybeans
[16] = Treatment 9: 5 μg/ml proliferation medium, 7 μg/ml B5 differentiation medium
[17] = Treatment 9: 5 μg/ml proliferation medium, 7 μg/ml B5 differentiation medium, 43 initially germinated soybeans
[18] = Treatment 10: 7 μg/ml proliferation medium, 3 μg/ml B5 differentiation medium
[19] = Treatment 10: 7 μg/ml proliferation medium, 3 μg/ml B5 differentiation medium, 80 initially germinated soybeans
[20] = Treatment 11: 7 μg/ml proliferation medium, 5 μg/ml B5 differentiation medium
[21] = Treatment 11: 7 μg/ml proliferation medium, 5 μg/ml B5 differentiation medium, 75 initially germinated soybeans
[22] = Treatment 12: 7 μg/ml proliferation medium, 7 μg/ml B5 differentiation medium
[23] = Treatment 12: 7 μg/ml proliferation medium, 7 μg/ml B5 differentiation medium, 80 initially germinated soybeans

## COC(=O)c1ccccc1S(=O)(=O)NC(=O)N(C)c1nc(C)nc(OC)n1 [tribenuron methyl]
[1]
  Positive plant rate: 22.2%
  Transformation efficiency: 12.0%
[2]
  Number of positive plants: 6 plant
  Number of seedlings: 27 plant
[3]
  Positive plant rate: 25.0%
  Transformation efficiency: 10.9%
[4]
  Number of positive plants: 6 plant
  Number of seedlings: 24 plant
[5]
  Positive plant rate: 50.0%
  Transformation efficiency: 6.7%
[6]
  Number of positive plants: 5 plant
  Number of seedlings: 10 plant
[7]
  Positive plant rate: 20.0%
  Transformation efficiency: 9.1%
[8]
  Number of positive plants: 5 plant
  Number of seedlings: 25 plant
[9]
  Positive plant rate: 21.4%
  Transformation efficiency: 10.0%
[10]
  Number of positive plants: 6 plant
  Number of seedlings: 28 plant
Treatment 6: 3 μg/ml proliferation medium, 7 μg/ml B5 differentiation medium
  Positive plant rate: 47.8%
[11]
  Number of positive plants: 11 plant
  Number of seedlings: 23 plant
[12]
  Positive plant rate: 36.8%
  Transformation efficiency: 14.0%
[13]
  Number of positive plants: 7 plant
  Number of seedlings: 19 plant
[14]
  Positive plant rate: 25.0%
  Transformation efficiency: 5.7%
[15]
  Number of positive plants: 4 plant
  Number of seedlings: 16 plant
[16]
  Positive plant rate: 62.5%
  Transformation efficiency: 11.6%
[17]
  Number of positive plants: 5 plant
  Number of seedlings: 8 plant
[18]
  Positive plant rate: 60.0%
  Transformation efficiency: 11.3%
[19]
  Number of positive plants: 9 plant
  Number of seedlings: 15 plant
[20]
  Positive plant rate: 77.7%
  Transformation efficiency: 9.3%
[21]
  Number of positive plants: 7 plant
  Number of seedlings: 9 plant
[22]
  Positive plant rate: 80.0%
  Transformation efficiency: 5.0%
[23]
  Number of positive plants: 4 plant
  Number of seedlings: 5 plant
